In patent publication US20250027127A1, “C[…] BACTERIA” (priority 2021, published 2025):

Assays:
[1] = room temperature
[2] = system: daurichromenic acid (DCA) synthase; conditions: cited from earlier work
Tcz9 = assay: In vitro assays with Tcz9 wild type and variants; type: biochemical, Actinomycete sp. AJS-327; conditions: 12 hours, 37° C., pH 7.5
Description: (§1) The in vitro assays were performed following a modified procedure that was previously reported.^1 Assays (0.1 mL) contained 100 mM potassium phosphate buffer pH 7.5, 0.1 mg/mL^−1 catalase, 10 μL DMSO, 1 μL of a 20 mM stock solution of substrate and were initiated by addition of 20 μM wild type Clz9 or Tcz9 or their respective variants, unless otherwise altered to investigate the thermal and solvent effects on enzyme activity or product stability during time course experiments. Assays were allowed to incubate for 12 hat 37° C. before quenching with 150 μL acetonitrile. Assays were then centrifuged at 14000×g for 30 minutes and passed through a […] filter before injecting 50 μL of the solution for LC-MS analysis at a flow rate of 0.75 mL/min with a mobile phase combination of water+0.1% formic acid (A) and acetonitrile+0.1% formic acid (B) using a gradient as follows: 50% (B), 0 to 2 minutes; 50 to 100% (B), 2 to 10 min; 100% (B), 10 to 17 min; 100% to 50% (B), 17 to 18 min; 50% (B), 18 to 20 minutes.

Clz9 = assay: In vitro assays with Clz9 wild type and variants; type: biochemical, Streptomyces sp. CNH-287; conditions: 12 hours, 37° C., pH 7.5
Description: as §1

Tcz9 T405Y = type: cell-based, Actinomycete sp. AJS-327; conditions: I mM substrate, IL culture, 48 hours

| Compound | stability in aqueous solutions [1] | activity with Tcz9 T124F (Tcz9) | activity with the Tcz9 enzymes (wild type and three variants) (Tcz9) | activity with the Clz9 enzymes (wild type and three variants) (Clz9) | further results |
| --- | --- | --- | --- | --- | --- |
| O=C1C=C2C(=C(O)/C1=c1\ccc3cc(Cl)c(Cl)n13)C(=O)n1c2cc(Cl)c1Cl [compound 6] | unexpectedly stable |  |  |  |  |
| O=C1C=C2C(=C(O)/C1=c1/ccc3cc(Cl)c(Cl)n13)C(=O)n1c2cc(Cl)c1Cl [compound 7] | unexpectedly stable |  |  |  |  |
| CCCCCc1cc(O)c(C/C=C(\C)CCC=C(C)C)c(O)c1C(=O)O [compound 12a, cannabigerolic acid] |  | abolished activity |  |  | activity with DCA synthase [2]: no activity; activity with wild type Tcz9 (Tcz9; 5 mol %): showed activity; activity with Tcz9 E368N (Tcz9): consumed all; activity with Tcz9 T405Y (Tcz9): increased conversion; activity with wild type Clz9 (Clz9; 5 mol %): showed activity; activity with Clz9 F156T (Clz9): nearly consumed all; activity with Clz9 T438Y (Clz9): increased conversion; conversion of substrate to products 15a and 17a (Tcz9 T405Y): approximately 80% |
| CC(C)=CCC/C(C)=C/Cc1c(O)cc(C)c(C(=O)O)c1O [compound 12c, cannabigerorcinic acid] |  |  | slightly different activity profile than 12b and 12a | slightly different activity profile than 12b and 12a |  |
| CC(C)=CCC/C(C)=C/CC/C(C)=C/Cc1c(O)cc(C)c(C(=O)O)c1O [compound 19, grifolic acid] |  | completely abolished activity | three of the four Tcz9 enzymes fully consumed | no activity |  |
